Results on twelve compounds are retold here after patent publication US20240058450A1, “BCL-XL Inhibitory Compounds Having Low Cell Permeability and Antibody Drug Conjugates Including the Same” (AbbVie Inc., priority 2014, published 2024).

Like-named read-outs stand apart in the source and are kept apart here.

Experiment [1] addresses Bcl-xL (Homo sapiens, UniProt Q07817). In words: Time Resolved-Fluorescence Resonance Energy Transfer (TR-FRET) binding assay, competition with probe F-Bak. Here is the method: Tb-anti-GST antibody was purchased from Invitrogen (Catalog No. PV4216).
For the assay, test compounds were serially diluted in DMSO starting at 50 μM (2× starting concentration; 10% DMSO) and 10 μL transferred into a 384-well plate. 10 μL of a protein/probe/antibody mix was then added to each well at final concentrations listed below:
The samples were then mixed on a shaker for 1 minute and incubated for an additional 2 hours at room temperature. For each assay plate, a probe/antibody and protein/antibody/probe mixture were included as a negative and a positive control, respectively. Fluorescence was measured on the Envision (Perkin Elmer) using a 340/35 nm excitation filter and 520/525 (F-Bak) and 495/510 nm (Tb-labeled anti-his antibody) emission filters. Dissociation constants (Ki) were determined using Wang's equation (Wang, 1995, FEBS Lett. 360:111-114). The TR-FRET assay can be performed in the presence of varying concentrations of human serum (HS) or fetal bovine serum (FBS). Compounds were tested both without HS and in the presence of 1% HS.

Experiment [2] deals with Molt-4 human acute lymphoblastic leukemia cells. In words: Molt-4 cell viability assay (CellTiter-Glo, 48 hours, 10% HS). In kind it is cell-based. The following applies: Homo sapiens, MOLT-4, 48 h, non-permeabilized cells. As to the method: The ability of Bcl-xL inhibitors that are able to traverse cell membranes to inhibit Bcl-xL can be determined in cell-based killing assays using a variety of cell lines and mouse tumor models. For example, their activity on cell viability can be assessed on a panel of cultured tumorigenic and non-tumorigenic cell lines, as well as primary mouse or human cell populations.
In one exemplary set of conditions, Molt-4 (ATCC, Manassas, VA) human acute lymphoblastic leukemia cells were plated 12,500 cells per well in 384-well tissue culture plates (Corning, Corning, NY) in a total volume of 25 μL tissue culture medium supplemented with 10% human serum (Sigma-Aldrich, St. Louis, MO) and treated with a 3-fold serial dilution of the compounds of interest from 10 μM to 0.0005 μM. Each concentration was tested in duplicate at least 3 separate times. The number of viable cells following 48 hours of compound treatment was determined using the CellTiter-Glo®, Luminescent Cell Viability Assay according to the manufacturer's recommendations (Promega Corp., Madison, WI). Compounds were tested in the presence of 10% HS.

Where [3] appears, read: in the presence of 1% HS, read-out: Bcl-xL Binding Ki (nM, 1% HS).
[4] abbreviates: without HS, read-out: Bcl-xL Binding Ki.

Bcl-xL, sequence (Q07817 whole entry): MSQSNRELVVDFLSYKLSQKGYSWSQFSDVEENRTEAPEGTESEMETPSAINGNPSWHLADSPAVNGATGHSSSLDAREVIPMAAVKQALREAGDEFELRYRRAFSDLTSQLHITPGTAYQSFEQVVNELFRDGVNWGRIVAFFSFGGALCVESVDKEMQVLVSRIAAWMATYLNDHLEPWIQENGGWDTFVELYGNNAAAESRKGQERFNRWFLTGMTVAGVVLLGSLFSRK

For the compound `Cc1c(-c2ccc(N3CCc4cccc(C(=O)Nc5nc6ccccc6s5)c4C3)nc2C(=O)O)cnn1CC12CC3(C)CC(C)(C1)CC(OCCN(CCCC(=O)O)C1CCNCC1)(C3)C2` [Example 1.42, 6-[8-(1,3-benzothiazol-2-ylcarbamoyl)-3,4-dihydroisoquinolin-2 (1H)-yl]-3-{1-[(3-{2-[(3-carboxypropyl)(piperidin-4-yl)amino]ethoxy}-5,7-dimethyltricyclo[3.3.1.1^3,7]dec-1-yl)methyl]-5-methyl-1H-pyrazol-4-yl}pyridine-2-carboxylic acid], the inhibitory constant (Ki) (commonly the dissociation constant of the complex between target and ligand, obtained from inhibition or displacement) in experiment [1] (setting [3]) is 0.133 nM; in experiment [1] (setting [4]), below 0.001 nM. The response in experiment [2] was half-maximal at 482 nM (EC50).

For `Cc1c(-c2ccc(N3CCc4cccc(C(=O)Nc5nc6ccccc6s5)c4C3)nc2C(=O)O)cnn1CC12CC3(C)CC(C)(C1)CC(OCCNCCC(=O)NC(CO)(CO)CO)(C3)C2` [Example 1.84, 6-[8-(1,3-benzothiazol-2-ylcarbamoyl)-3,4-dihydroisoquinolin-2 (1H)-yl]-3-{1-[(3-{2-[(3-{[1,3-dihydroxy-2-(hydroxymethyl)propan-2-yl]amino}-3-oxopropyl)amino]ethoxy}-5,7-dimethyltricyclo[3.3.1.1^3,7]dec-1-yl)methyl]-5-methyl-1H-pyrazol-4-yl}pyridine-2-carboxylic acid], the inhibition constant (Ki) in experiment [1] (setting [3]) worked out at 1.2 nM; in experiment [1] (setting [4]), 0.069 nM. Moreover, the EC50 (in general, the concentration that produces a half-maximal response) in experiment [2] was 259 nM.

With `Cc1c(-c2ccc(N3CCc4cccc(C(=O)Nc5nc6ccccc6s5)c4C3)nc2C(=O)O)cnn1CC12CC3(C)CC(C)(C1)CC(OCCNC1CCN(CC(=O)O)CC1)(C3)C2` [Example 1.28, 6-[8-(1,3-benzothiazol-2-ylcarbamoyl)-3,4-dihydroisoquinolin-2 (1H)-yl]-3-(1-{[3-(2-{[1-(carboxymethyl)piperidin-4-yl]amino}ethoxy)-5,7-dimethyltricyclo[3.3.1.1^3,7]dec-1-yl]methyl}-5-methyl-1H-pyrazol-4-yl}pyridine-2-carboxylic acid], the Ki in experiment [1] (setting [3]) is 0.046 nM; in experiment [1] (setting [4]), below 0.001 nM. This compound also registered an EC50 in experiment [2] of 568 nM.

For the compound `Cc1c(-c2ccc(-c3ccc4c(c3)N(C(=O)Nc3nc5ccccc5s3)CCC4)nc2C(=O)O)cnn1CC12CC3(C)CC(C)(C1)CC(OCCN(C)CCCN)(C3)C2` [Example 1.64, 3-{1-[(3-{2-[(3-aminopropyl)(methyl)amino]ethoxy}-5,7-dimethyltricyclo[3.3.1.1^3,7]dec-1-yl)methyl]-5-methyl-1H-pyrazol-4-yl)-6-[1-(1,3-benzothiazol-2-ylcarbamoyl)-1,2,3,4-tetrahydroquinolin-7-yl]pyridine-2-carboxylic acid], the inhibitory constant (Ki) in experiment [1] (setting [3]) and in experiment [1] (setting [4]) was below 0.01 nM throughout. In experiment [2], this compound registered a concentration giving a half-maximal response (EC50) of 5.25 nM.

For `Cc1c(-c2ccc(N3CCc4cccc(C(=O)Nc5nc6ccccc6s5)c4C3)nc2C(=O)O)cnn1CC12CC3(C)CC(C)(C1)CC(OCCNCC(O)CO)(C3)C2` (centres unmarked) [Example 1.7, 6-[8-(1,3-benzothiazol-2-ylcarbamoyl)-3,4-dihydroisoquinolin-2 (1H)-yl]-3-{1-[(3-{2-[(2,3-dihydroxypropyl)amino]ethoxy}-5,7-dimethyltricyclo[3.3.1.1^3,7]dec-1-yl)methyl]-5-methyl-1H-pyrazol-4-yl}pyridine-2-carboxylic acid], the inhibition constant (Ki) in experiment [1] (setting [3]) amounted to 0.24 nM. This compound also registered a concentration giving a half-maximal response (EC50) in experiment [2] of 12 nM.

On to `Cc1c(-c2ccc(N3CCc4cccc(C(=O)Nc5nc6ccccc6s5)c4C3)nc2C(=O)O)cnn1CC12CC3(C)CC(C)(C1)CC(OCCNC[C@H](O)[C@@H](O)CO)(C3)C2` [Example 1.81, 6-[8-(1,3-benzothiazol-2-ylcarbamoyl)-3,4-dihydroisoquinolin-2 (1H)-yl]-3-(1-{[3,5-dimethyl-7-(2-{[(2S,3S)-2,3,4-trihydroxybutyl]amino}ethoxy)tricyclo[3.3.1.1^3,7]dec-1-yl]methyl}-5-methyl-1H-pyrazol-4-yl}pyridine-2-carboxylic acid], for which the inhibitory constant (Ki) stood at 0.37 nM in experiment [1] (setting [3]) and 0.011 nM in experiment [1] (setting [4]). The EC50 in experiment [2] stood at 252 nM.

Consider `Cc1c(-c2ccc(N3CCc4cccc(C(=O)Nc5nc6ccccc6s5)c4C3)nc2C(=O)O)cnn1CC12CC3(C)CC(C)(C1)CC(OCCN(C)C(=O)[C@@H](N)CCCCN(C)C)(C3)C2` [Example 1.63, 6-[8-(1,3-benzothiazol-2-ylcarbamoyl)-3,4-dihydroisoquinolin-2 (1H)-yl]-3-{1-[(3-{2-[(N′,N′-dimethyl-L-lysyl)(methyl)amino]ethoxy}-5,7-dimethyltricyclo[3.3.1.1^3,7]dec-1-yl)methyl]-5-methyl-1H-pyrazol-4-yl}pyridine-2-carboxylic acid], for which the Ki in experiment [1] (setting [3]) and in experiment [1] (setting [4]) was below 0.01 nM each time. In experiment [2], this compound registered a half-maximal effective concentration (EC50) of 2.22 nM.

Regarding `Cc1c(-c2ccc(-c3ccc4cccc(C(=O)Nc5nc6ccccc6s5)c4c3)nc2C(=O)O)cnn1CC12CC3(C)CC(C)(C1)CC(OCCNCCC(=O)O)(C3)C2` [Example 1.68, 6-[8-(1,3-benzothiazol-2-ylcarbamoyl)naphthalen-2-yl]-3-(1-[(3-{2-[(2-carboxyethyl)amino]ethoxy}-5,7-dimethyltricyclo[3.3.1.1^3,7]dec-1-yl)methyl]-5-methyl-1H-pyrazol-4-yl}pyridine-2-carboxylic acid], the Ki in experiment [1] (setting [3]) was 0.32 nM; in experiment [1] (setting [4]), below 0.01 nM. The compound further showed a concentration giving a half-maximal response (EC50) in experiment [2] of 346 nM.

Turning to `Cc1c(-c2ccc(N3CCc4cccc(C(=O)Nc5nc6ccccc6s5)c4C3)nc2C(=O)O)cnn1CC12CC3(C)CC(C)(C1)CC(OCCNS(=O)(=O)CCCNC(CO)CO)(C3)C2` [Example 1.83], the inhibition constant Ki in experiment [1] (setting [3]) is 0.66 nM; in experiment [1] (setting [4]) it was 0.031 nM. Also, the midpoint of the response in experiment [2], the EC50, lay at 178 nM.

On to `Cc1c(-c2ccc(N3CCc4cccc(C(=O)Nc5nc6ccccc6s5)c4C3)nc2C(=O)O)cnn1CC12CC3(C)CC(C)(C1)CC(OCCNC[C@H](O)[C@H](O)[C@@H](O)[C@H](O)[C@H](O)CO)(C3)C2` [Example 1.82], for which the inhibitory constant (Ki) in experiment [1] (setting [3]) stood at 0.46 nM; in experiment [1] (setting [4]), 0.023 nM. Further, in experiment [2], the EC50 turned out to be 373 nM.

On to `Cc1c(-c2ccc(N3CCc4cccc(C(=O)Nc5nc6ccccc6s5)c4C3)nc2C(=O)O)cnn1CC12CC3(C)CC(C)(C1)CC(OCCN(CCC(=O)O)C1CCNCC1)(C3)C2` [Example 1.36, 6-[8-(1,3-benzothiazol-2-ylcarbamoyl)-3,4-dihydroisoquinolin-2 (1H)-yl]-3-{1-[(3-{2-[(2-carboxyethyl)(piperidin-4-yl)amino]ethoxy}-5,7-dimethyltricyclo[3.3.1.1^3,7]dec-1-yl)methyl]-5-methyl-1H-pyrazol-4-yl}pyridine-2-carboxylic acid], for which the Ki was 0.0635 nM in experiment [1] (setting [3]) and below 0.001 nM in experiment [1] (setting [4]). Further, the EC50 in experiment [2] came out at 405 nM.

For the compound `Cc1c(-c2ccc(N3CCc4cccc(C(=O)Nc5nc6ncccc6s5)c4C3)nc2C(=O)O)cnn1CC12CC3(C)CC(C)(C1)CC(OCCN(CCCP(=O)(O)O)C1CCNCC1)(C3)C2` [Example 1.50, 3-{1-[(3,5-dimethyl-7-{2-[(3-phosphonopropyl)(piperidin-4-yl)amino]ethoxy)tricyclo[3.3.1.1^3,7]dec-1-yl)methyl]-5-methyl-1H-pyrazol-4-yl}-6-[8-([1,3]thiazolo[4,5-b]pyridin-2-ylcarbamoyl)-3,4-dihydroisoquinolin-2 (1H)-yl]pyridine-2-carboxylic acid], the inhibition constant (Ki) in experiment [1] (setting [3]) was 0.051 nM; in experiment [1] (setting [4]), 0.0073 nM. In experiment [2], this compound registered an EC50 of 2770 nM.
